The record followed here is US10975068B2, “6-aminopyridin-3-yl thiazoles as modulators of RORγT” (Janssen Pharmaceutica NV, priority 2016, dated 2021).

Test [1] deals with human RORγt ligand binding domain (RORγt LBD) (Homo sapiens (Human), UniProt P51449). In words: RORγt ThermoFluor® assay (thermal shift binding). As to conditions: read-out: ThermoFluor® Assay, Kd. The essentials:
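His-tagged human RORγt LBD (0.065 mg/mL) with 60 μM 1,8-ANS in 100 mM Hepes pH 7.0, 10 mM NaCl, 2.5 mM GSH, 0.002% Tween-20 was heated at 1 °C/min.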

For test [2], the target named is full-length human RORγt (Homo sapiens (Human), UniProt P51449). Briefly: RORγt (full-length human) reporter assay, Conditions B or C. The class given is cell-based. As to conditions: for inhibition at 3 µM: at 3 μM compound concentration; for RORγt (FL) Reporter Assay B or C, % inhibition (value marked *): marked *: footnote not given. The essentials: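 HEK293T cells transiently co-transfected with GAL4-DBD–full-length human RORγt (nt 142-1635, NM_001001523.1) plus GAL4-firefly and CMV-Renilla luciferase reporters; compounds added 4-6 h post-transfection for 16-20 h in 1.3% FBS, 0.1% DMSO. Firefly signal normalized to DMSO and saturating reference compound, then to Renilla; IC50 from concentration plots.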

The mark [3] stands for this setting: read-out: RORγt (FL) Reporter Assay B or C, % inhibition.
[4] abbreviates: read-out: RORγt (FL) Reporter Assay B or C, IC50.
[5] abbreviates: Conditions B or C, read-out: RORγt (FL) Reporter Assay B or C, IC50.

Each structure is given as a SMILES string. Like-named read-outs stand apart in the source and are kept apart here.

Chain of full-length human RORγt (P51449 other isoform, or with tags, fused parts or gaps): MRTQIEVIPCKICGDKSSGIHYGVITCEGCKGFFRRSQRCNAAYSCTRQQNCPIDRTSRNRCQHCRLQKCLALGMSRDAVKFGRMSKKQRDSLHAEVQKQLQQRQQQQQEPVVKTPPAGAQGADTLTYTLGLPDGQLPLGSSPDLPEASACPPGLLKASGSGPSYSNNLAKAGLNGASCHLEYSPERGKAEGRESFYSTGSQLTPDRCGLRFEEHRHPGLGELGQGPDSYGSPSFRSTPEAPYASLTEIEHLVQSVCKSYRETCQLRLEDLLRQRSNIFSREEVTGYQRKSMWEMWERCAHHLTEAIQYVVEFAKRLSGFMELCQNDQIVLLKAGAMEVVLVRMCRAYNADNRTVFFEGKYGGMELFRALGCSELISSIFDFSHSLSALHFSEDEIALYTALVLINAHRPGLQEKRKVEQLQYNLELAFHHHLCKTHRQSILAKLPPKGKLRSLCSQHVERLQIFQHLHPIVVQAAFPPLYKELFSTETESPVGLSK
Chain of human RORγt ligand binding domain (RORγt LBD) (P51449 other isoform, or with tags, fused parts or gaps): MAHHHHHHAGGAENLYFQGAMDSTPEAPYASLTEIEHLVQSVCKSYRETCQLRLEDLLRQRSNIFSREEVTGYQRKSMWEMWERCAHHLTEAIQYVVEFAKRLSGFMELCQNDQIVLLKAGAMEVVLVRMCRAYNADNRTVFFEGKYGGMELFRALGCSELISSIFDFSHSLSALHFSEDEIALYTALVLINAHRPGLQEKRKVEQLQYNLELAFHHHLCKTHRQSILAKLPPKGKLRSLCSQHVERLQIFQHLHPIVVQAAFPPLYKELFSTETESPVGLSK

`C[C@H]1CCCN1C(=O)c1nc(C(=O)NC2(CO)CC2)sc1-c1cnc(NC(C)(C)C)cc1C(F)(F)F` [Example 263, 5-[6-(tert-Butylamino)-4-(trifluoromethyl)-3-pyridyl]-N-[1-(hydroxymethyl)cyclopropyl]-4-[(2S)-2-methylpyrrolidine-1-carbonyl]thiazole-2-carboxamide]: the Kd in test [1] was found to be 1.1 nM. In addition, in test [2] (setting [3]), the inhibition at 3 µM amounted to 107%. Further, the IC50 in test [2] (setting [4]) stood at 6.6 nM.
The corresponding values for `CC[C@H](Nc1cc(C(F)F)c(-c2sc(C(=O)N[C@H](C)CO)nc2C(=O)N2CC(F)(F)C[C@@H]2C)cn1)C(F)(F)F` [Example 423, 4-[(2S)-4,4-Difluoro-2-methyl-pyrrolidine-1-carbonyl]-5-[4-(difluoromethyl)-6-[[(1S)-1-(trifluoromethyl)propyl]amino]-3-pyridyl]-N-[(1R)-2-hydroxy-1-methyl-ethyl]thiazole-2-carboxamide] are 1.1 nM, 103% and 38 nM.
For the compound `C[C@H](Nc1cc(C(F)F)c(-c2sc(C(=O)N[C@H]3C[C@@H]3O)nc2C(=O)N2CCC[C@@H]2C)cn1)C(F)(F)F` (relative stereo) [Example 223, 5-(4-(Difluoromethyl)-6-(((S)-1,1,1-trifluoropropan-2-yl)amino)pyridin-3-yl)-N-((1S*,2S*)-2-hydroxycyclopropyl)-4-((S)-2-methylpyrrolidine-1-carbonyl)thiazole-2-carboxamide], the Kd in test [1] turned out to be 33 nM. Further, the “RORγt (FL) Reporter Assay B or C, % inhibition (value marked *)” value (“RORγt … % inhibition (value marked *)” for short) in test [2] (Conditions B or C) is reported as 112* %. The IC50 in test [2] (setting [5]) amounted to 100 nM.
In the case of `C[C@H]1CCCN1C(=O)c1nc(C(=O)N[C@@H]2CC[C@H]2O)sc1-c1cnc(NC(C)(C)C)cc1C(F)(F)F` (relative stereo) [Example 370, 5-(6-(tert-Butylamino)-4-(trifluoromethyl)pyridin-3-yl)-N-((1R*,2R*)-2-hydroxycyclobutyl)-4-((S)-2-methylpyrrolidine-1-carbonyl)thiazole-2-carboxamide], the Kd in test [1] is 0.69 nM. In addition, the inhibition at 3 µM in test [2] (setting [3]) is 96%. Besides, the IC50 in test [2] (setting [4]) turned out to be 10 nM.
For `C[C@H](NC(=O)c1nc(C(=O)N2CC(F)(F)C[C@@H]2C)c(-c2cnc(NC3(C)CCC3)cc2C(F)(F)F)s1)C(C)(C)O` [Example 195, 4-((S)-4,4-Difluoro-2-methylpyrrolidine-1-carbonyl)-N—((S)-3-hydroxy-3-methylbutan-2-yl)-5-(6-((1-methylcyclobutyl)amino)-4-(trifluoromethyl)pyridine-3-yl)thiazole-2-carboxamide], in test [1], the dissociation constant (Kd) is 0.43 nM. Also, the “RORγt … % inhibition (value marked *)” value in test [2] (Conditions B or C) is 85* %. In addition, the IC50 in test [2] (setting [5]) is 33 nM.
As to `C[C@H]1CC(F)(F)CN1C(=O)c1nc(C(=O)NCC(C)(C)O)sc1-c1cnc(NC(C)(C)C2CC2)cc1C(F)(F)F` [Example 107, (S)-5-(6-((2-Cyclopropylpropan-2-yl)amino)-4-(trifluoromethyl)pyridin-3-yl)-4-(4,4-difluoro-2-methylpyrrolidine-1-carbonyl)-N-(2-hydroxy-2-methylpropyl)thiazole-2-carboxamide], the Kd in test [1] was found to be 0.26 nM. Also, the “RORγt … % inhibition (value marked *)” value in test [2] (Conditions B or C) is on record as 111* %. The IC50 in test [2] (setting [5]) was 11 nM.
On to `C[C@H]1CCCN1C(=O)c1nc(C(=O)NC2CCOCC2)sc1-c1cnc(NC(C)(C)C)cc1C(F)(F)F` [Example 374, 5-[6-(tert-Butylamino)-4-(trifluoromethyl)-3-pyridyl]-4-[(2S)-2-methylpyrrolidine-1-carbonyl]-N-tetrahydropyran-4-yl-thiazole-2-carboxamide], for which the Kd in test [1] turned out to be 1.6 nM. Besides, in test [2] (setting [3]), the inhibition at 3 µM was determined as 121%. In test [2] (setting [4]), the IC50 turned out to be 4.8 nM.
The corresponding values for `C[C@H]1CC(F)(F)CN1C(=O)c1nc(C(=O)N[C@H](C)C(C)(C)O)sc1-c1cnc(N[C@@H](C2CC2)C(F)(F)F)cc1C(F)F` [Example 314, 5-(6-(((S)-1-Cyclopropyl-2,2,2-trifluoroethyl)amino)-4-(difluoromethyl)pyridin-3-yl)-4-((S)-4,4-difluoro-2-methylpyrrolidine-1-carbonyl)-N—((R)-3-hydroxy-3-methylbutan-2-yl)thiazole-2-carboxamide] are 1.4 nM, 101% and 35 nM.
With `CC[C@H](Nc1cc(C(F)F)c(-c2sc(C(=O)NC3CCOCC3)nc2C(=O)N2CC(F)(F)C[C@@H]2C)cn1)C(F)(F)F` [Example 422, 4-[(2S)-4,4-Difluoro-2-methyl-pyrrolidine-1-carbonyl]-5-[4-(difluoromethyl)-6-[[(1S)-1-(trifluoromethyl)propyl]amino]-3-pyridyl]-N-tetrahydropyran-4-yl-thiazole-2-carboxamide], the dissociation constant Kd in test [1] worked out at 0.62 nM. Besides, the inhibition at 3 µM in test [2] (setting [3]) amounted to 101%. In addition, the IC50 in test [2] (setting [4]) was 23 nM.
Regarding `CC[C@H](Nc1cc(C(F)F)c(-c2sc(C(=O)N[C@H]3C[C@@H]3O)nc2C(=O)N2CCC[C@@H]2C)cn1)C(F)(F)F` (relative stereo) [Example 214, 5-(4-(Difluoromethyl)-6-(((S)-1,1,1-trifluorobutan-2-yl)amino)pyridin-3-yl)-N-((1S*,2S*)-2-hydroxycyclopropyl)-4-((S)-2-methylpyrrolidine-1-carbonyl)thiazole-2-carboxamide], the Kd in test [1] turned out to be 12 nM. For the same compound, in test [2] (Conditions B or C), the “RORγt … % inhibition (value marked *)” value was 98* %. The concentration for half-maximal inhibition (IC50) in test [2] (setting [5]) is 75 nM.
On to `CC(C)(C)Nc1cc(C(F)F)c(-c2sc(C(=O)N[C@H]3CC[C@H](O)C3)nc2C(=O)N2C3CCC2CC3)cn1` [Example 413, 4-((1s,4s)-7-Azabicyclo[2.2.1]heptane-7-carbonyl)-5-[6-(tert-butylamino)-4-(difluoromethyl)-3-pyridyl]-N-[(1S,3S)-3-hydroxycyclopentyl]thiazole-2-carboxamide], for which the Kd in test [1] is 0.82 nM. This compound also came in with an IC50 in test [2] (RORγt (FL) Reporter Assay B or C, IC50) of 20 nM. In addition, the inhibition at 1 µM in test [2] (at 1 μM compound concentration, read-out: RORγt (FL) Reporter Assay B or C, % inhibition) worked out at 133%.
On to `C[C@H]1CCCN1C(=O)c1nc(C(=O)N2CCC(C)(O)C2)sc1-c1cnc(NC(C)(C)C)cc1C(F)(F)F` (stereo partly drawn) [Example 364, (5-(6-(tert-Butylamino)-4-(trifluoromethyl)pyridin-3-yl)-2-(3-hydroxy-3-methylpyrrolidine-1-carbonyl)thiazol-4-yl)((S)-2-methylpyrrolidin-1-yl)methanone], for which, in test [1], the equilibrium dissociation constant (Kd) was determined as 7.9 nM. The inhibition at 3 µM in test [2] (setting [3]) is 111%. The IC50 in test [2] (setting [4]) was 39 nM.
The like results for `C[C@H](Nc1cc(C(F)F)c(-c2sc(C(=O)N[C@H]3CC[C@H](O)C3)nc2C(=O)N2CC(F)(F)C[C@@H]2C)cn1)C(F)(F)F` [Example 415, 4-[(2S)-4,4-Difluoro-2-methyl-pyrrolidine-1-carbonyl]-5-[4-(difluoromethyl)-6-[[(1S)-2,2,2-trifluoro-1-methyl-ethyl]amino]-3-pyridyl]-N-[(1S,3S)-3-hydroxycyclopentyl]thiazole-2-carboxamide] were, in that order, 1.1 nM, 97% and 64 nM.
